System: Eimeria tenella
Experiment: Anticoccidial activity in chicken inoculated with Eimeria tenella oocysts
Format: in vivo
Conditions: for Rate (%) of relative body weight gain / Survival rate (%): 7 days after infection; for Lesion scores: cecum, 7th day after infection; for ACI (Anticoccidial Index): ACI=(relative weight gain+survival rate)-(lesion scores+oocyst scores)
Experimental: The activity of MI215-NF3 substance for controlling chicken coccidiosis was tested as summarized below.
1. Newly-hatched chicken (male) were preliminarily raised for 1 week, and […] chicken were used in the test.
2. The body weights of the chicken were individually measured at the beginning of the test. To make up each test group, ten chicken were selected and alloted in each group so as to minimize variations among the test groups.
3. Chicken were orally inoculated with 5×10^4 oocysts of Eimeria tenella per chick through a stomach probe tube.
4. After the oocyst inoculation, each chick was allowed to take ad libitum a feed which had been prepared by mixing a predetermined amount of MI215-NF3 substance (sodium salt) with a special feed containing no anticoccidial agent. Incidentally, the chicken were also allowed to drink water ad libitum.
5. Up to the 7th day after the oocyst inoculation, the number of oocysts in feces from each chick and the state of the feces were observed everyday.
6. Each chick was anatomized on the 7th day after the infection. Anatomical procedures were as follows.
1) The body weight of each chick was measured.
2) Each chick was sacrificed by dislocation of neck cervical fracture.
3) Each chick was subjected to celiotomy and the cecum was enucleated. The cecum was visually inspected for any lesions on both outer and inner walls of cecum.
4) The cecum thus inspected was individually disintegrated in a homogenizer, whereby a cecum suspension was prepared. The number of oocysts in the suspension was counted.
5) Based on the results of the above inspections, the value of ACI (Anticoccidial Index) was determined in accordance with the evaluation method proposed by Merck & Co., Inc., U.S.A., namely, by the following equation:
ACI=(rate (%) of relative body weight gain+survival rate (%) of
chick)-(lesion scores+oocyst scores)
Upon determination of the above ACI value, the "rate of weight gain" of the chicken in each group of chicken during the test period for estimation of the drug efficacy and the "rate of relative body weight gain" used for the calculation of ACI were evaluated in accordance with the following equations: […]
______________________________________
Rate (%) of body weight gain = [(mean body weight of
chicken at the end of the test - mean body
weight of the chicken at the beginning of
the test) .div. mean body weight of the chicken
at the beginning of the test] × 100.
Rate (%) of relative body weight gain =
[(rate of body weight gain of the treated group
or an infected but non-treated group) .div. rate
of body weight gain of a non-infected and non-
On the other hand, the term "lesion scores" means a value which is obtained by evaluating, in terms of indexes, the results of visual inspection of lesions on an enucleated cecum sample. The term "oocyst scores" means a value which is obtained by evaluating, in terms of indexes, the number of oocysts actually counted. Details of the procedure for the determination of ACI values are described, for example, in the literature compiled by Kiyoshi Tsunoda, "Chicken Coccidiosis", pp 95-101, Chikusan Shuppan Sha (May, 1983).

CC[C@@]1([C@@H]2O[C@@H]([C@H]3O[C@@](O)(CO)[C@H](C)C[C@@H]3C)C[C@@H]2C)CC[C@H]([C@]2(C)CC[C@]3(C[C@H](O)[C@@H](C)[C@@H]([C@@H](C)[C@@H](OC)[C@H](C)C(=O)O)O3)O2)O1 [Monensin]
Oocyst scores (100 ppm in feed): 20
Rate (%) of relative body weight gain (100 ppm in feed): 96.13%
Survival rate (%) (100 ppm in feed): 100%
Lesion scores (100 ppm in feed): 32.0
ACI (Anticoccidial Index) (100 ppm in feed): 144.1

CC[C@@H](C(=O)[C@@H](C)[C@@H](O)[C@H](C)[C@@H]1O[C@@H]([C@@H](CC)C(=O)O)CC[C@@H]1C)[C@H]1O[C@]2(C=C[C@@H](O)[C@]3(CC[C@@](C)([C@H]4CC[C@](O)(CC)[C@H](C)O4)O3)O2)[C@H](C)C[C@@H]1C [Salinomycin, salinomycin]
Oocyst scores (50 ppm in feed): 10
Rate (%) of relative body weight gain (50 ppm in feed): 71.13%
Survival rate (%) (50 ppm in feed): 100%
Lesion scores (50 ppm in feed): 34.0
ACI (Anticoccidial Index) (50 ppm in feed): 127.1

— patent publication US5215981A, “Polyether antibiotic MI215-NF3 substance, production process thereof, and agent for control of chicken coccidiosis” (Hokko Chemical Industry Co., Ltd., priority 1988, dated 1993)
